From patent publication US10282841B1, “Bioinformatic analysis of vascular patterning” (The United States of America as Represented by the …, priority 2011, dated 2019)
Where two headings read alike, the source gives them in different places.

How the values were obtained:
[1] = tested on: avian chorioallantoic membrane; type: in vivo
Source text: To develop the VESGEN system mapping capabilities, proangiogenesis and antiangiogenesis factors were first studied in the avian chorioallantoic membrane, a well-established, experimentally convenient 2D, optically accessible model of microvascular remodeling, angiogenesis and angiogenesis therapeutics.

blood vessels = assay: VESGEN analysis of regulators of blood vessel growth by vessel branching generation; type: in vivo; details: for vessel number, density or diameter for larger pre-existing vessels: larger pre-existing vessels of G1-G4
Source text: The stimulator bFGF and inhibitor TGF-beta1 may be regarded as robust but simple regulators of blood vessel growth, because of their selective regulation of the growth of new small vessels. Other important regulators like vascular endothelial growth factor-165 (VEGF-165), also known as vascular permeability factor (VPF), are more complex in their regulatory activities. […] All healthy and unhealthy (abnormal) fluid shifts in the body are tightly regulated by the small vessels (vascular and lymphatic capillaries) except during trauma such as flesh wounds. The VESGEN system may support analysis of such retinal and brain vascular changes mediating the fluid shifts from images of experimental animals and clinical diagnostic images of humans.

[2] = chorioallantoic membrane, with higher concentrations

For angiostatin, the “vascular morphology on inhibition of angiogenesis” value ([1]; avian chorioallantoic membrane) was “rendered the vascular tree highly abnormal and irregular”.

With basic fibroblast growth factor [bFGF] the “vessel number, density or diameter for larger pre-existing vessels” value (blood vessels) was “did not affect”, the “growth of new small vessels of vessel generation G5 and greater” value (shortened to “growth … of vessel generation G5 and greater”) (blood vessels) was “stimulation of the growth of new small vessels of vessel generation G5 and greater” and the “growth of small vessels” value ([1]; avian chorioallantoic membrane) was “stimulated specifically the robust growth of many small vessels”.

For “transforming growth factor beta-1 [transforming growth factor (TGF) β-1]”, the “vessel number, density or diameter for larger pre-existing vessels” value (blood vessels) was “did not affect”, the “growth … of vessel generation G5 and greater” value (blood vessels) was “inhibition of the growth of new small vessels of vessel generation G5 and greater” and the “vascular morphology on inhibition of angiogenesis” value ([1]; avian chorioallantoic membrane) was “retained a normal vascular morphology”.

With “vascular endothelial growth factor-165 [VEGF]” the “vessel leakage, vessel swelling and vessel tortuosity” value (blood vessels; blood vessel morphology) was “induction of vessel leakage, vessel swelling and vessel tortuosity”, the “growth and swelling of the associated lymphatic vascular system” value (blood vessels; lymphatic vascular system) was “stimulates the growth and swelling of the associated lymphatic vascular system” and the “growth … of vessel generation G5 and greater” value (blood vessels) was “stimulation of the growth of new, small blood vessels”. For the same substance, the “diameter of larger vessels” value ([1]; avian chorioallantoic membrane, at high concentrations) was “significantly dilated”, the “growth of new small vessels” value ([1]; avian chorioallantoic membrane, at low concentrations) was “stimulated the growth of new small vessels” and the vessel density ([1]; chorioallantoic membrane, at low concentrations) was “increased”. The “diameters of larger arteries” value [1, 2] was “increasing diameters of larger arteries” and the vessel density [1, 2] was “progressively decreasing vessel density”.
